We go through nine molecules from patent US20020143040A1, “Heterocyclic aromatic oxazole compounds and use thereof” (priority 1994, published 2002).

Structures are written as SMILES. Like-named read-outs stand apart in the source and are kept apart here.

What is called IC50 is the concentration that inhibits the measured activity by half.

Experiment [1] deals with T1, human cyclooxygenase-2 (Homo sapiens, UniProt P35354).
T1 sequence (P35354 18-604): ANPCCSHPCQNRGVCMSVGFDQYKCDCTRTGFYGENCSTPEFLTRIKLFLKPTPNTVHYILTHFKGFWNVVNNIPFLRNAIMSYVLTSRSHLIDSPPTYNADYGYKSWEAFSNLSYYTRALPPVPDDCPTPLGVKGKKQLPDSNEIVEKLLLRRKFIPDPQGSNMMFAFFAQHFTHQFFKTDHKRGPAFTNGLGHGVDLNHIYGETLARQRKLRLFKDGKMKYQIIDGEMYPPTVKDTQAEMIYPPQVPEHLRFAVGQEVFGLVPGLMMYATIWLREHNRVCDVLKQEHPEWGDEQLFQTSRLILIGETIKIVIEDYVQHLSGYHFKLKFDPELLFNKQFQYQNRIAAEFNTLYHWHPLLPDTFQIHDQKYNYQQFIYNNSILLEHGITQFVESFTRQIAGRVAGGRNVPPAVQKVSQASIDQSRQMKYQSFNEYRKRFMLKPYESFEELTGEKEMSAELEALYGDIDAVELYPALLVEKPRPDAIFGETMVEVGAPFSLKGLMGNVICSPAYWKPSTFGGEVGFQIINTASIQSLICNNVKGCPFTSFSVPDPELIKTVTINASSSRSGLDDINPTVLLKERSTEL
In words: Inhibitory action on cyclooxygenase-2 (conversion of 14C arachidonic acid into PGH2). The note with it: for COX-1/COX-2: ratio of IC50 COX-1 to IC50 COX-2.
Protocol: The enzymatic activity was determined from the percent conversion of ^14C arachidonic acid into prostaglandin H2 (PGH2) and the decomposed product thereof. That is, a test sample (20 μl), an enzyme solution (20 μl) and distilled water (10 μl) were added to 100 mM Tris-HCl buffer (pH 8, 140 μl) containing hematin (2 μM) and tryptophan (5 mM), and the mixture was thoroughly stirred, which was followed by preincubation at 24° C. for 5 minutes. Then, a ^14C arachidonic acid solution (10 μl) was added and the mixture was reacted at 24° C., whereafter a solution (40 μl) of ethyl ether/methanol/1M citric acid (30/4/1) ice-cooled to −20° C. was added to stop the reaction. The reaction mixture was centrifuged for 5 minutes at 3,000 rpm to give an ether layer which was placed on a thin plate, and developed with ethyl ether/methanol/acetic acid (90/2/0.1) to determine percent conversion (A) from arachidonic acid to PGH2 and the decomposed product thereof.
An enzyme prepared from human platelets was used as an enzyme solution of cyclooxygenase-1, and an enzyme expressed by a yeast, into which cDNA of human cyclooxygenase-2 had been introduced using a kit of Invitrogen Corp., was used as an enzyme solution of cyclooxygenase-2.

The test system of experiment [2] is carrageenin-induced podedema. Description: Effects on carrageenin-induced podedema. It is filed as in vivo, male Donryu rats. To be noted: p.o. one hour before carrageenin; limb volume 3 hours after carrageenin; dose inhibiting by 30% relative to control group. The protocol:
(Effects on Carrageenin-induced Podedema)
Carrageenin (1%, 0.05 ml) dissolved in physiological saline was subcutaneously injected to the left hindlimb of male Donryu rats to induce podedema. The degree of podedema was evaluated by measuring the volume of the limb 3 hours after carrageenin administration. A test compound (1, 3, 10 or 30 mg/kg) was orally administered one hour before carrageenin administration, and suppression thereby was studied. Inhibitory activity was expressed by the dose (ED30) of the test compound necessary for inhibiting by 30% relative to the control group.
(In general: The carrageenan paw model is a standard test of acute inflammation.)

The target of experiment [3] is cyclooxygenase-1 prepared from human platelets (Homo sapiens, UniProt P23219). In words: Inhibitory action on cyclooxygenase-1 (conversion of 14C arachidonic acid into PGH2). The format is biochemical. To be noted: enzyme prepared from human platelets; preincubation 24° C. 5 minutes; read-out: IC50 (μM) COX-1. An excerpt: (Inhibitory Action on Cyclooxygenase)
Sequence of cyclooxygenase-1 prepared from human platelets (P23219 24-599): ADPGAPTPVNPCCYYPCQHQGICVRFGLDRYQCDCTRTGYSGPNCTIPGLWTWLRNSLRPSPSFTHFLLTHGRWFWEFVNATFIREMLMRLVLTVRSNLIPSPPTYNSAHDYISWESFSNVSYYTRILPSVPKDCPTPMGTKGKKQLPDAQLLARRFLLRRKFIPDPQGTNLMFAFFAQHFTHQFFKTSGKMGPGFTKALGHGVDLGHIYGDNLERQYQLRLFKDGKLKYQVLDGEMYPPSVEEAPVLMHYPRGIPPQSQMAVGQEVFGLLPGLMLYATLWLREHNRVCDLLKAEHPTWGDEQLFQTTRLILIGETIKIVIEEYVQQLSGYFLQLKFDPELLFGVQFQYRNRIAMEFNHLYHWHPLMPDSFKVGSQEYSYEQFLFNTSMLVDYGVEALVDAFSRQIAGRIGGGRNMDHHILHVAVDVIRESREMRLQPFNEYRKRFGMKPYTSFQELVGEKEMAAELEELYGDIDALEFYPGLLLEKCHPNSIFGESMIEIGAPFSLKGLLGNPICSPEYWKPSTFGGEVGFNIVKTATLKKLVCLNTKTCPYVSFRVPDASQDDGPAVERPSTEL
Inhibition (%)=(1−A/B)×100

As for `Cc1nc(C2CCCCC2)c(-c2cc(F)c(S(N)(=O)=O)c(F)c2)o1` [Example 6], in experiment [1], the COX-1/COX-2 is reported as more than 625.

Take `Cc1nc(-c2ccc(F)cc2)c(-c2ccc(S(N)(=O)=O)c(F)c2)o1` [Example 7, 5-(4-aminosulfonyl-3-fluorophenyl)-4-(4-fluorophenyl)-2-methyloxazole]: in experiment [1], the COX-1/COX-2 was 1,233.

Turning to `Cc1nc(C2CCCCC2)c(-c2ccc(S(C)(=O)=O)c(F)c2)o1` [Example 3, 4-cyclohexyl-5-(3-fluoro-4-methylsulfonylphenyl)-2-methyloxazole], the COX-1/COX-2 in experiment [1] is on record as more than 333.

`COc1ccc2c(c1)c(CC(=O)O)c(C)n2C(=O)c1ccc(Cl)cc1` [Indomethacin, reference compound]: the “carrageenin-induced podedema in rats, ED30 (mg/kg p.o.)” value in experiment [2] is 2.9 mg/kg.

On to `Cc1nc(C2CCCCC2)c(-c2ccc(S(N)(=O)=O)cc2)o1` [Control 1, reference compound], for which, in experiment [1], the COX-1/COX-2 was 643.

As to `Cc1nc(C2CCCCC2)c(-c2ccc(S(N)(=O)=O)c(Cl)c2)o1` [Example 4], the IC50 in experiment [1] is more than 10 µM.

For the molecule `Cc1nc(C2CCCCC2)c(-c2ccc(S(N)(=O)=O)c(F)c2)o1` [Example 2, 5-(4-aminosulfonyl-3-fluorophenyl)-4-cyclohexyl-2-methyloxazole], the IC50 in experiment [3] was more than 100 µM. Also, the “carrageenin-induced podedema in rats, ED30 (mg/kg p.o.)” value in experiment [2] amounted to 5.5 mg/kg. For the same molecule, the COX-1/COX-2 in experiment [1] is recorded as >1,428.

`Cc1nc(-c2ccc(F)cc2)c(-c2ccc(S(N)(=O)=O)cc2)o1` [Control 2, reference compound]: the IC50 amounted to 5 µM in experiment [3] and 0.02 µM in experiment [1] (read-out: IC50 (μM) COX-2, enzyme expressed by yeast with cDNA of human cyclooxygenase-2, preincubation 24° C. 5 minutes).

`Cc1nc(C2CCCCC2)c(-c2ccc(S(N)(=O)=O)c(C)c2)o1` [Example 5]: in experiment [1], the IC50 is more than 10 µM.
